The values below come from patent publication US20260176313A1, “TGF-BETA-1 VACCINE” (IO BIOTECH APS, priority 2022, published 2026).

For one assay, the system named is mice. As to the kind of experiment: IFNγ ELISPOT assay of immune responses in mice vaccinated with synthetic long peptides. Format: in vivo, mouse. The conditions noted are these: mice vaccinated with SLP; recall with minimal class I / class II peptides. The method, then:
FIG. 9. TGFb-1 vaccine induces robust immune responses. Mice were vaccinated with two different synthetic long peptides (SLPs) and immune responses were analyzed by IFNγ ELISPOT assay. ELISPOT responses for individual mice are shown. Results for control peptides are clearly indicated.
(§1) For the MC38 tumor study, female C56/BL6 mice (Tacomic) were vaccinated with 100 μg of peptide (SEQ ID: 31 or SEQ ID NO: 34) prepared in DMSO and diluted in water to a total volume of 50 μl (per injection) before mixing with an equal volume of Montanide ISA51 VG ST adjuvant to form an emulsion. The vaccine formulation was administered subcutaneously (s.c.) at the tail base on Days 0, 7, and 14. MC38 tumor cells (2e5 per injection) were administered s.c. in the flank on day 0. Every 3 to 4 days, tumors were measured with a Vernier caliper and the tumor volume was calculated using the formula: V=L×W2/2, where V is tumor volume, L is the length of tumor (longer axis), and W is the width of the tumor (shorter axis).
A murine TGFb-1 vaccine was developed based on synthetic long peptides (SLPs) encoding predicted MHC class I and class II epitopes (SEQ ID NOs: 31-36 in Table 1 below). Pre-clinical studies of anti-TGFb therapies often fail to show any impact on tumor growth when administered as a monotherapy.

In a further assay the test system is MC38 tumor. As to the kind of experiment: Analysis of tumor microenvironment (TME) by flow cytometry in MC38 tumor study. The assay is classed as in vivo, mouse. Particulars: vaccinated Days 0, 7, 14, termination day 21. On the procedure: FIG. 10A-D. TGFb-1 vaccine drives derived immune permissive changes in the TME. Tumor weight was compared between groups at experiment termination (day 21). TGFB-1 expression was assayed by latency associated peptide (LAP) staining.
as §1
Freshly isolated tumors were dissociated by collagenase digestion to yield a single cell suspension for flow cytometry analysis. Approximately 1 million cells were stained for analysis by flow cytometry using a Symphony Al flow cytometer (BD, Becton Dickinson) with the following antibodies, anti-mouse LAP BV421 (BD, 565638), anti-mouse CD4 BV605 (BD, 743156) and anti-mouse CD8 BV786 (BD, 563332). Data analysis was performed using FlowJo software.
A general note: In flow cytometry, cells or beads pass a laser one at a time.

Consider SLDTQYSKVLALYNQHNPGASASP [SLP2], for which, in the assay with mice, the “Immune response by IFNγ ELISPOT in vaccinated mice” value is “mainly induced class II response”. Besides, in the assay with MC38 tumor, the “CD4+ T cell infiltration in TME” value is listed as “significantly enhanced” and the “CD8+ T cell infiltration in TME” value was “remained unchanged”.
